Data: US8192962B2, “Processes for detecting toxic substances” (Daikin Industries, Ltd., priority 2001, dated 2012)

System: Mitochondria-located protein genes
Assay: DNA chip mRNA expression in yeast, mitochondria-located protein genes (Table 2)
Type: cell-based, Saccharomyces cerevisiae S288C
Details: cells incubated two hours with the chemical substance
Outline: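 S. cerevisiae S288C grown at 25° C. in YPD to log phase, then exposed 2 h to a toxicant at a growth-inhibiting, non-lethal concentration; untreated cells as control. Poly(A) mRNA reverse-transcribed with Cy3-dUTP or Cy5-dUTP, hybridized >12 h at 65° C. to whole-genome yeast DNA chip; value = fluorescence ratio treated/untreated.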

Measured: The level of expressed mRNA in the presence of chemical substance/The level of expressed mRNA in the absence of chemical substance

COc1cc(CNC(=O)CCCCC=CC(C)C)ccc1O [(12), 8-methyl-N-vanillyl-6-nonenamide]
0.8: yeast gene YBR003W | yeast gene YBR044C | yeast gene YBR091C | yeast gene YBR282W | yeast gene YDR347W | yeast gene YEL024W | yeast gene YGL187C | yeast gene YGR082W | yeast gene YJL102W | yeast gene YJL133W | yeast gene YJL180C
1.5: yeast gene YGR028W
1.3: yeast gene YBR221C | yeast gene YDR178W | yeast gene YER178W
2.0: yeast gene YGR008C
1.2: yeast gene YDL198C
0.7: yeast gene YBL038W | yeast gene YBR122C | yeast gene YBR185C | yeast gene YHR008C | yeast gene YJL166W
0.6: yeast gene YDR529C | yeast gene YEL039C
1.0: yeast gene YBL099W | yeast gene YCL057W | yeast gene YDL067C | yeast gene YFL016C | yeast gene YGL018C | yeast gene YGR062C | yeast gene YGR076C | yeast gene YJL096W | yeast gene YJR045C | yeast gene YJR077C
1.9: yeast gene YGR244C
1.1: yeast gene YBR251W | yeast gene YCR046C | yeast gene YCR083W | yeast gene YDR079W | yeast gene YDR231C | yeast gene YDR298C
1.8: yeast gene YDR258C
0.9: yeast gene YBL022C | yeast gene YBL030C | yeast gene YDL181W | yeast gene YDR377W | yeast gene YGL191W | yeast gene YGR174C
1.4: yeast gene YAL039C | yeast gene YIL155C
